Reference: patent publication US20240366540A1, “MITOFUSIN INHIBITORS AND USES THEREOF” (Albert Einstein College of Medicine, priority 2021, published 2024)

Assays:
[1] = test system: MEFs; test: Mitochondrial aspect ratio (Mito AR), live cell imaging
Method: Live cell imaging. MEFs were seeded on chamber slides (MatTek Corporation: 35 mm dishes, No. 1.5, 14 mm glass diameter) at ˜70% confluence. […] Images were taken with Leica SP5 inverted confocal microscope. Data were analyzed with Image J software. >200 mitochondria were measured per condition in mitochondrial aspect ratio.
Measurement of mitochondrial aspect ratio (Mito AR). Images that depict stained mitochondria with mitotracker green were analyzed using FIJI We measured for each mitochondrion its length and width. Then, we divided the length by the width for each mitochondrion to get its mitochondrial aspect ratio. >200 mitochondria were measured per treatment.

[2] = test system: MEFs; test: Mitochondrial respiration in cellulo (OCR, Seahorse XF24); assay type: cell-based, mouse; conditions: WT MEFs; MASM7 1 μM or MFI8 20 μM, 6 hrs
Method: Mitochondrial respiration in cellulo. Mitochondrial oxygen consumption rates (OCR) were assessed using a XF24 Analyzer (Seahorse Biosciences, Billerica MA, USA). In brief, 3×10^4 MEFs were cultured in a XF24 cell culture microplate containing DMEM supplemented with 10% fetal bovine serum. […] OCR was normalized to cell number or total protein content per well for each condition tested.

[3] = test system: MEFs; test: Caspase-3/7 activation assay; assay type: cell-based, mouse; conditions: 6 hr, Caspase-Glo 3/7
Method: Caspase-3/7 activation assay. Cells (5×10^3 cells/well) were seeded in a 96-well white plate and treated with MASM7, MFI8. Caspase 3/7 activation was measured after 6 hr by addition of the Caspase-Glo 3/7 reagent according to the manufacturer's protocol (Promega). Luminescence was detected by a F200 PRO microplate reader (TECAN). Caspase assays were performed in at least triplicate and the data normalized to vehicle-treated control wells. Dilutions of MASM7 or MFI8 were performed using a TECAN D300e Digital Dispenser from 10 mM stocks.

[4] = test system: MEFs; test: Metabolomics (TCA cycle carboxylic acids, NAD, NADH); assay type: cell-based, mouse
Method: Metabolomics. […] Cells were harvested using a cell scraper and centrifuged at 1200 rpm in 4° C. for 3 min. Each cell pellet sample was suspended into 250 to 700 μL of 80% aqueous methanol in an Eppendorf tube. The samples were vortex mixed for 15 s and sonicated in an ice-water bath for 5 min, followed by centrifugal clarification at 15,000 rpm and 5° C. in an Eppendorf […] centrifuge. The clear supernatants were collected. A standard stock solution of TCA cycle carboxylic acids, NAD and NADH was prepared in 80% methanol as S1. This standard solution S1 was serially diluted 1 to 4 (v/v) with the same solvent to make standard solutions S2 to S10. 20 μL of each standard solution and an aliquot of the clear supernatant from each cell was mixed with 20 μL of an internal standard solution containing 9 ^13C- or deuterium labeled analogues of the TCA cycle carboxylic acids (except isocitric acid), 20 μL of 200 mM 3-NPH solution and 20 μL of 150 mM of EDC solution. The mixtures were allowed to react at 30° C. for 30 min. After reaction, 120 μL of water was added to each solution. 10 μL of the resultant solutions was injected into a C18 UPLC column to quantitate the TCA cycle carboxylic acids by UPLC-MRM/MS with (-) ion detection, according to the procedure we described in a publication.

[5] = test system: cells; test: Cell viability assay (CellTiter-Glo); assay type: cell-based; conditions: 72 hours
Method: Cell viability assay. […] Cell viability was assayed after 72 hrs by addition of CellTiter-Glo reagent according to the manufacturer's protocol (Promega). Luminescence was measured using a […] microplate reader (TECAN). Viability assays were performed in at least triplicate and the data normalized to vehicle-treated control wells.

[6] = test system: MEFs; test: RNA-seq gene expression; assay type: cell-based, mouse; conditions: RNA-seq
From the text: RNA-seq. Sequencing results were demultiplexed and converted to FASTQ format using Illumina bcl2fastq software. The sequencing reads were adapter and quality trimmed with Trimmomatic and then aligned to the mouse genome (build mm10/GRCm38) using the splice-aware STAR aligner. The featureCounts program was utilized to generate counts for each gene based on how many aligned reads overlap its exons. These counts were then normalized and used to test for differential expression using negative binomial generalized linear models implemented by the DESeq2 R package.

[7] = test system: mitochondrial biogenesis markers; test: Mitochondrial biogenesis markers by q-PCR; assay type: cell-based
Method: Analysis of mitochondrial biogenesis-related genes by q-PCR. Total RNA was extracted by using RNeasy Mini Kit (Qiagen) followed by cDNA synthesis using the SuperScript IV VILO Master Mix (Thermo Scientific), both performed according to the manufacturer's protocol. q-PCR was performed using the following primers: For the q-PCR reaction, Power SYBR Green master mix (Thermo Scientific) was used according to the manufacturer's instructions. […] Rpl39 was used as housekeeping gene and 2^−ΔΔCT method was applied to determine the relative mRNAs expression.

[8] = test system: mitochondrial biomass; test: Mitochondrial biomass (Tomm20 protein, mitotracker green intensity, mitochondrial to nuclear DNA ratio); assay type: cell-based
Method: Western blot. Western blots were performed from whole cell lysates (WCL) prepared in lysis buffer containing 50 mM Tris-HCl pH 7.5, 1% Triton X-100, 150 mM NaCl, 5 mM MgCl2, 1 mM EGTA and 10% glycerol in the presence of protease inhibitor cocktail (Roche). WCL were separated on a 4-12% NuPAGE MES gel (Invitrogen), transferred into a PVDF membrane, block for 1 hr and immunoblot with the corresponding anti-bodies. Determination of mtDNA to genomic DNA ratio by q-PCR. DNA was extracted using DNeasy Blood and Tissue kit (Qiagen) according to the manufacturer's protocol. q-PCR was used to determine the ratio of mitochondrial DNA (mtDNA) and genomic DNA (gn DNA). The following primers were used for q-PCR reaction: […]

[9] = test system: MFN1 and MFN2; test: MFN1 and MFN2 gene expression and protein levels; assay type: cell-based
Method: Western blot. Western blots were performed from whole cell lysates (WCL) prepared in lysis buffer containing 50 mM Tris-HCl pH 7.5, 1% Triton X-100, 150 mM NaCl, 5 mM MgCl2, 1 mM EGTA and 10% glycerol in the presence of protease inhibitor cocktail (Roche).
Analysis of mitochondrial biogenesis-related genes by q-PCR. Total RNA was extracted by using RNeasy Mini Kit (Qiagen) followed by cDNA synthesis using the SuperScript IV VILO Master Mix (Thermo Scientific), both performed according to the manufacturer's protocol. q-PCR was performed using the following primers: […]
For the q-PCR reaction, Power SYBR Green master mix (Thermo Scientific) was used according to the manufacturer's instructions. Briefly, each reaction consisted of 10 ng cDNA, 5 μL Power SYBR Green master mix, 200 nM primers (forward and reverse), and RNase-free water up to 10 μL. q-PCR was performed on the ViiA 7 Real-Time PCR System (Thermo Scientific) with the following cycle parameter: 95° C. for 10 min, 40 cycles of 95° C. for 15 s, and 60° C. for 1 min. q-PCR products were analyzed by melting curves for unspecific products or primer dimer formation. Rpl39 was used as housekeeping gene and 2^−ΔΔCT method was applied to determine the relative mRNAs expression.

[10] = test system: MEFs; test: DNA damage, yH2AX immunofluorescence in MEFs; assay type: cell-based, mouse; conditions: 6 h
Method: Immunofluorescent analysis and microscopy. […] After treatments, cells were washed with PBS and fixed with 4% PFA for 15 min. […] After incubation with primary antibodies, cells were washed with PBS and incubated with the appropriate mouse secondary antibody (ThermoFisher Scientific; A-11001) in the blocking solution. After PBS washes, coverslips were dipped in water and mounted on glass slides using Vectashield containing DAPI (Vector laboratories). […] Data were analyzed with ImageJ.

[11] = test system: MEFs; test: Mitochondrial depolarization assay (TMRE membrane potential); assay type: cell-based, mouse
Method: Mitochondrial depolarization assay (mtΔΨ). MEFs (10^4 cells/well) were seeded in a 96-well black plate and treated with MASM7 or MFI8 for 6 hrs. Following treatments, cells were stained with 250 nM TMRE (Sigma; Cat. 87917) for 20 min at 37° C. Subsequently, cells were washed with thrice with PBS. Fluorescence intensity was detected by a M100 microplate reader (TECAN, Ex: 540 nm/Em: 579 nm).

[12] = MFN1/MFN2 DKO MEFs reconstituted with WT MFN2

SMILES: CC(Sc1nnc(C2CC2)n1-c1ccccc1)C(=O)Nc1sc2c(c1C(N)=O)CCC2 (stereo not shown) [MASM7, 2-(2-((5-cyclopropyl-4-phenyl-4H-1,2,4-triazol-3-yl)thio)propanamido)-5,6-dihydro-4H-cyclopenta[b]thiophene-3-carboxamide]
- mitochondrial aspect ratio ([1]; MFN1/MFN2 DKO MEFs reconstituted with D725A/L727A or L727A MFN2 mutants): not when reconstituted with D725A/L727A or L727A MFN2 mutants
- mitochondrial aspect ratio [1, 12]: markedly increased mitochondrial aspect ratio
- respiration and mitochondrial ATP production (OCR) [2]: increased basal and maximal respiration and mitochondrial ATP production
- caspase-3/7 activity [3]: no effect
- total NAD+/NADH ratio [4]: no effect on total NAD^+/NADH ratio
- metabolites of the TCA cycle ([4]; UPLC-MRM/MS): no significant effect in the majority of the metabolites of the TCA cycle
- cellular viability [5]: neither MFI8 nor MASM7 decreased cellular viability
- gene expression of subunits of the respiratory complexes [6]: altered expression of selected genes of the respiratory complexes rather than inducing a consistent trend
- gene expression levels of mitochondrial biogenesis markers [7]: no alteration
- Tomm20 protein levels, mitotracker green intensity and mitochondrial to nuclear DNA ratio [8]: neither MASM7 nor MFI8 altered
- MFN1 and MFN2 gene expression and corresponding protein levels [9]: neither MASM7 nor MFI8 altered
- DNA damage (yH2AX foci) ([10]; MFN1/MFN2 DKO MEFs): did not induce DNA damage in any of the cell lines
- DNA damage (yH2AX foci) ([10]; WT MEFs): did not induce DNA damage in any of the cell lines
- mitochondrial membrane potential (TMRE) [11, 12]: significantly increased mitochondrial membrane potential
- mitochondrial membrane potential (TMRE) ([11]; WT MEFs, 6 hrs): concentration responsively increased mitochondrial membrane potential
- compound-induced increase in mitochondrial membrane potential ([11]; co-treated with myxothiazol or rotenone): revoked
